Where two headings read alike, the source gives them in different places.
How the values were obtained:
[1] = test system: STZ-diabetic Wistar rats; assay: Experiment 5: urinary protein loss caused by diabetic nephropathy after 1-month treatment; format: in vivo, rat
Procedure: For the 24-hour period of urine collection, the animals were placed in individual metabolic cages. During this period they were given water ad libitum but no food. The latter measure was necessary to prevent possible contamination by the protein content of the food. Urine was collected in calibrated glass containers, in which Thymol crystal (Reanal 3135-1-08-38) was placed to prevent bacterial contamination.
Before measurement, the urine samples were centrifuged (2500 rpm) and filtered through a paper filter (Whatmann 1). If necessary, they were stored at −20° C. until measurement.
The total protein content of the urine was determined by the Bradford staining method (Sigma B-6916, St. Louis, Mo.), and color intensity was detected by spectrophotometry (Hitachi-U-3200).

[2] = test system: high fat (HF) diet insulin resistant male Wistar rats; assay: Experiment 8: in vivo insulin-dependent glucose uptake (euglycaemic glucose clamp) in dietary induced insulin resistance; settings: for effect on fasting blood glucose levels: 20 mg/kg daily, 3 weeks; for in vivo insulin mediated glucose uptake (glucose infusion rate, GIR): 20 mg/kg/day for 3 weeks, euglycaemic glucose clamp, insulin infusion 6.4 mU/kg/min
Procedure: Male Wistar rats (Charles River Laboratories Inc.) with an initial body weight of 300-350 g were used in the experiments.
Insulin resistance was induced by dietary manipulation: animals were given a high fat (HF) diet for 3 weeks. In the HF diet the proportion of saturated fats were dominant and gave 70% of total daily caloric intake.
Briefly: the fasting blood glucose concentration in different animal groups must be identical. Experiments were carried out in conscious, freely moving, chronicly canulated rats: first an insulin infusion (6.4 mU/kg/min) was started, followed by a parallel-run continuous glucose infusion to maintain blood glucose concentrations in the euglycaemic range. After stabilisation the quantity of infused glucose was measured for a 90 min. period (glucose infusion rate=GIR, mg/kg/min) which is the quantitative parameter of insulin sensitivity.

[3] = test system: STZ-diabetic Wistar rats; assay: Experiment 6: Compound-A and enantiomers, nerve conduction velocity after 1 month treatment; settings: for MNCV / MNCV improvement / SNCV / SNCV improvement: 5 mg/kg daily, 1 month; for effect on motor (MNCV) and sensory (SNCV) nerve conduction velocity deficits: Compound-A 10 mg/kg, enantiomers 5 mg/kg daily
Procedure: In the experiments, male Wistar rats were used (Charles River Laboratories Inc.). At the start of the experiment, their weights were 340-370 g. Diabetes was induced by the intravenous administration of a single 45 mg/kg dose of streptozotocine (STZ, Sigma, St. Louis, Mo.) dissolved in physiological saline solution. The development of diabetes was checked after 1 day by a blood glucose test, accepting a value over 15 mmol/l.
The test and reference substances were administered p.os to the animals once a day.
For the determination of nerve conduction velocity (NCV), the method of Stanley, modified by De Konig and Gispen was used. The animals were anesthetized by the simultaneous administration of Hyponorm (1 mg/kg ip., Janssen, Tilburg, Denmark), fluanisone (10 mg/ml), and phentanyl citrate (0.2 mg/ml). Afterwards, the left ischiadicus and tibial nerves were stimulated at standard points. Supramaximal stimulus (square impulse, 0.03 ms) was used with a platinum needle electrode, through a Nihon-Kohden (model SEN-1104, Japan) stimulator. The electromyogram (EMG) transferred from the sole muscles and intensified by a myograph (Elema-Schonander, Stockholm, Sweden) was analyzed further by the Matlab for Windows (Mathwork Inc, UK) program. The extent of NCV damage caused by diabetes was expressed in m/s. The effectiveness of the treatment was compared to this in terms of percentage (%). The statistical calculations were done by unpaired t-test or single-criterion ANOVA test (along with the Newman-Keuls post hoc test).

[4] = test system: STZ-diabetic Wistar rats
Excerpt: The experiments were accomplished on Wistar rats with a body weight of 320-350 g. Diabetes was induced and checked as described in Experiment 2. In the test animals having been diabetic for 3 weeks the left nervus ischidiacus was injured by freezing and the right side one was used as non-injured control. The regeneration was observed by monitoring the signals of the flexor reflex provoked by irritation of the sole that is areas under curve (AUC) of the electromyogram transferred from the forward tibial muscle. For the stimulation and detection the system described in Experiment 2 was used. Single daily doses of 10 mg/kg of Compound-A and 5 mg/kg of A(+) enantiomer were administred for 5 weeks after the injury by freezing.

[5] = test system: STZ-diabetic rats; settings: 2 month; for Scores lenticular + retinal improvement % / Scores lenticular + retinal mean ± SE / Scores retinal improvement % / Scores retinal mean ± SE: 5 mg/kg daily; for effect on lenticular and retinal pathologic histological alterations / effect on retinal histological alterations only: Compound-A 10 mg/kg, enantiomers 5 mg/kg daily
Procedure: After anesthesia (Calypsovet, 125 mg/kg. Ip., Richter Rt., Hungary), the eyes were enucleated and fixed in 4% formaldehyde dissolved in a phosphate buffer (pH:7.4).
Afterwards, they were embedded in paraffin (Medim DDM P800, embedding center: Lignifer L-120-92-014, stainer: Shandon Eliott, Microtome: is Leica SM 2000 R, Microscope: Jenaval Karl Zeiss Jena). Several 6 micron sections of the eyes were prepared, and hematoxilyn/eosine (Fluka) and PAS (periodic acid-Schiff, Fluka) staining were used. The light-microscopic evaluation was performed at a magnification of 40× and 100×. Photographs and slide positives were prepared of representative samples.
The histological evaluation was performed on coded samples, the group division was unknown for the examiner. Pathological deviations of the retina were graded on a scale of 0-20, while those of the lens on a scale of 0-3.
The statistical calculations were done with the Statistica 4.5 (SatSoft, USA) program. The given value for negative cases was 0.1. A Box and Whisker plot graph was also prepared.
For each group in the experiment, the mean±SE (Standard Error) values were calculated, and the comparison was done with the help of a non-parametric Mann-Whitney U-test (Graphpad Instat, San Diego, Calif.).

[6] = test system: Zucker Diabetic Fatty (ZDF) rats; settings: for Fed serum glucose concentrations: 2 × 20 mg/kg/day
Procedure: A genetically diabetic animal model was selected and the Zucker Diabetic Fatty (ZDF) rats were used in the experiments. This model is the diabetic variant of the insulin resistant, obese but non-diabetic Zucker fa/fa animal model (see Experiment 1). In the ZDF rats diabetes developed at the age of 6-8 weeks preceded by an insulin resistant phase.
The effect of (A+) enantiomer was investigated in a treatment with a dose of 2×20 mg/kg/day started in the non-diabetic phase, at the age of 7 weeks and continued for 6 weeks.
Clinical chemistry parameters were measured by standard methods. The serum insulin concentrations were measured by a recently developed method (ELISA method, DRG lnternational,Inc., U.S.A.).

| SMILES | effect on fasting blood glucose levels [2] | in vivo insulin mediated glucose uptake (glucose infusion rate, GIR) [2] [mg/kg/min] | MNCV [3] [m/s] | MNCV improvement [3] [%] | SNCV [3] [m/s] | SNCV improvement [3] [%] | effect on motor (MNCV) and sensory (SNCV) nerve conduction velocity deficits [3] | Scores lenticular + retinal improvement % [5] [%] | Scores lenticular + retinal mean ± SE [5] | Scores retinal improvement % [5] [%] | Scores retinal mean ± SE [5] | effect on lenticular and retinal pathologic histological alterations [5] | effect on retinal histological alterations only [5] | other results |
| --- | --- | --- | --- | --- | --- | --- | --- | --- | --- | --- | --- | --- | --- | --- |
| O=C(O)/C=C\C(=O)O.[O-][n+]1cccc(C(Cl)=NOC[C@H](O)CN2CCCCC2)c1 [A(+), (+)-/R/-N-[2-hydroxy-3-(1-piperidinyl)-propoxy]-pyridine-1-oxide-3-carboximidoyl chloride (Z)-2-butenedioate (1:1)] | did not affect | 20.5 ± 0.89 | 56.1 ± 0.5 | 71.3 | 59.7 ± 0.5 | 68.5 | significantly improved | 42.9 | 4.05 ± 0.80 | 68.9 | 1.68 ± 0.63 | significantly improved | effective | 24-hour Urinary Protein Loss Mean ± SE ([1]; 5 mg/kg daily, 1 month, series 2): 5.61 ± 1.08 mg/24 h; effect on STZ-diabetes-induced urinary protein loss ([1]; Bimoclomol 20 mg/kg, Compound-A 10 mg/kg, (+) enantiomer 5 mg/kg daily): significantly reduced; neuroregeneration of the non-freezed nerves ([4]; 5 mg/kg daily for 5 weeks): 83%; neuroregenerative effect ([4]; 5 mg/kg daily for 5 weeks): strong neuroregenerative effect; extent of neuroregeneration of the nerve injured by freezing ([4]; 5 mg/kg daily for 5 weeks after injury, 5. week, untreated 63%): 93%; antidiabetic activity in diabetic animals ([6]; 2×20 mg/kg/day): strong antidiabetic activity; normalization of blood glucose concentrations ([6]; 2×20 mg/kg/day): did not normalize; Fed serum glucose concentrations ([6]; 3 weeks): 10.82 ± 1.36 mmol/L; Fed serum glucose concentrations ([6]; 5 weeks): 13.25 ± 0.76 mmol/L |
| O=C(O)/C=C\C(=O)O.[O-][n+]1cccc(C(Cl)=NOC[C@@H](O)CN2CCCCC2)c1 [A(−), (−)-/S/-N-[2-hydroxy-3-(1-piperidinyl)-propoxy]-pyridine-1-oxide-3-carboximidoyl chloride (Z)-2-butenedioate (1:1)] | did not affect | 19.7 ± 1.38 | 53.1 ± 0.7 | 39.4 | 54.1 ± 0.9 | 34.9 | did not have significant improving effect | 10.3 | 6.02 ± 1.09 | 21.7 | 3.53 ± 1.07 | not effective | not significant | – |
